Experimental data taken from patent US8703813B2, “Compound with spiro chiral carbon backbone, preparation method thereof, and pharmaceutical composition containing the same” (SNU R & DB Foundation, priority 2008, dated 2014).

Tests used:
[1] = Solubility in organic solvents; type: physicochemical
C3H/10T1/2 cells [2] = test: Adipocyte differentiation inhibitory ability (Oil Red O staining); type: cell-based, mouse; settings: C3H/10T1/2, 10 μg/ml
Experimental: C3H/10T1/2 cells, which are mouse mesenchymal progenitor cells purchased from ATCC, were diluted in DMEM (Dulbecco's Modified Eagle Medium) medium containing 5.958 g/L HEPES, 3.7 g/L sodium bicarbonate and 10% FBS (fetal bovine serum), and cultured in 24-well culture plates at a density of 4×10^4 cells/well, in the presence of 5% CO2 at 37° C. for 2 days. When the cultured cells were grown to 90˜100% confluency in the culture plates, the cells were cultured in DMEM medium containing 10% FBS, to which 5μ/ml insulin, 1 μM dexamethason, and 5 μM troglitazone were added, in the presence of 5% CO2 at 37° C. for 8 days, to induce differentiation into adipocyte. The medium was exchanged every other day during differentiation. The C3H/10T1/2 cell line, in which differentiation into the adipocyte was induced, was fixed with 3.7% formaldehyde at room temperature for 30 minutes. An oil Red O solution dissolved in isopropanol at a concentration of 0.5% was diluted in distilled water at a ratio of 6:4, filtered through a 0.2 μm filter, and poured to the fixed cell line, which was stained for 1 hour. In order to observe only the cells differentiated into the adiopocyte, the dye solution was removed and the cells were washed with distilled water two times.
116V specimen extracted from sponge was dissolved in DMSO solvent, and allowed to treat C3H/10T1/2 cell lines, which are mouse mesenchymal progenitor cells, at concentrations of 1, 2.5, 5, 10, and 20 μg/ml. […] Then, after specimens of the compound 1 (1163), the compound 2 (1162), the compound 3 (1161), and the compound 4 (1164), which were purely separated from the 116V and 116VI species were obtained, the same experiment was performed. […] Remarkable cytotoxicity was not observed in each of the specimens during differentiation of adipocytes (FIG. 8).

C3H/10T1/2 cells [3] = test: Osteoblast formation activity (calcium deposition assay, Alizarin Red S); type: cell-based, mouse; settings: for osteoblast differentiation ability: C3H/10T1/2, calcium deposition; for concentration of maximum osteoblast differentiation activity: C3H/10T1/2, tested 1-20 ug/ml; for concentration at which cytotoxicity was observed: C3H/10T1/2 during osteoblast differentiation
Experimental: C3H/10T1/2 cells, which are mouse mesenchymal progenitor cells purchased from ATCC, were diluted in DMEM (Dulbecco's Modified Eagle Medium) medium containing 5.958 g/L HEPES, 3.7 g/L sodium bicarbonate, and 10% FBS (fetal bovine serum), and cultured in 24-well culture plates at a density of 4×10^4 cells/well, in the presence of 5% CO2 at 37° C. for 2 days. The cultured cells were grown to 90˜100% confluency in the culture plates, the cells were cultured in DMEM medium containing 10% FBS, to which 10 mM of β-glycerophosphate and 50μ/ml of ascorbic acid were added, in the presence of 5% CO2 at 37° C. for 6 days, to induce differentiation into osteoblast. The medium was exchanged every other day during differentiation. The C3H/10T1/2 cell line, in which differentiation into the osteoblast was induced, was washed with PBS (Phosphate Buffered Saline) once, and fixed with 70% ethanol at 20° C. for 1 hour. The cells after fixing were washed with cold PBS three times, and stained with 40 mM Alizarin Red S dye solution at room temperature for 20 minutes. The dye solution was removed and the cells were washed with distilled water three times in order to selectively observe only the cells differentiated into the osteoblast.
An aliquot 116V and an aliquot 116VI extracted and partitioned from sponges are dissolved in a DMSO solvent, and used to treat the C3H/10T1/2 cell line, mesenchymal progenitor cells, at concentrations of 1, 2.5, 5, 10, and 20 ug/ml. […] Since then, the same experiment was performed on the compound (1163), the compound 2 (1162), the compound 3 (1161), and the compound 4 (1164), which were purely separated from the aliquots 116V and 116VI, and as a result, it could be confirmed that the osteoblast differentiation ability was increased in the compounds 1, 3, and 4. […] To study a mechanism with respect to osteoblast differentiation ability, the C3H/10T1/2 cell lines were treated with the compound 1 and the compound 4 for 6 days, respectively. […] Also, the C3H/10T1/2 cell lines were treated with the compound 1 and the compound 4 for 6 days, respectively. […] Furthermore, it could be ascertained that combining of Runx2 and TAZ proteins was increased by treatment of the compounds and thus the activity of Runx2-meditated transcription was increased. The compound 5, which is an ester derivative of the compound 1 (1163), was synthesized in order to prepare a material having more excellent bioactivity, and the structure of the compound 5 obtained thus was determined. […] Therefore, the compounds of the present invention and derivatives thereof are expected to promote the differentiation of the osteoblast and thus play an innovative role in treatment of osteoporosis.

Runx2 and TAZ = test: Western blot of osteoblast differentiation mark factors; type: cell-based, mouse; settings: C3H/10T1/2 treated for 6 days
Experimental: (§1) An aliquot 116V and an aliquot 116VI extracted and partitioned from sponges are dissolved in a DMSO solvent, and used to treat the C3H/10T1/2 cell line, mesenchymal progenitor cells, at concentrations of 1, 2.5, 5, 10, and 20 ug/ml. […] Since then, the same experiment was performed on the compound (1163), the compound 2 (1162), the compound 3 (1161), and the compound 4 (1164), which were purely separated from the aliquots 116V and 116VI, and as a result, it could be confirmed that the osteoblast differentiation ability was increased in the compounds 1, 3, and 4. […] To study a mechanism with respect to osteoblast differentiation ability, the C3H/10T1/2 cell lines were treated with the compound 1 and the compound 4 for 6 days, respectively. […] Also, the C3H/10T1/2 cell lines were treated with the compound 1 and the compound 4 for 6 days, respectively. […] Furthermore, it could be ascertained that combining of Runx2 and TAZ proteins was increased by treatment of the compounds and thus the activity of Runx2-meditated transcription was increased. The compound 5, which is an ester derivative of the compound 1 (1163), was synthesized in order to prepare a material having more excellent bioactivity, and the structure of the compound 5 obtained thus was determined. […]

Runx2, Osteocalcin, Msx2 = test: Real time PCR of osteoblast differentiation mark factors; type: cell-based, mouse; settings: C3H/10T1/2 treated for 6 days, RTPCR
Experimental: as §1

SMILES: CC(=O)OCC1=C[C@@]2(C=C(C)C[C@H](/C=C(\C)CCC=C(C)C)O2)O[C@H]2C=C(C)C(=O)C[C@@H]12 [Compound 2]
- Solubility [1]: Easily Dissolved in Organic Solvent of Acetone, Methanol, DMSO, etc.
- adipocyte differentiation ability (C3H/10T1/2 cells [2]): remarkably decreased

SMILES: CC(=O)O[C@@H]1C[C@H]2C(CO)=C[C@@]3(C=C(C)C[C@H](/C=C(\C)CCC=C(C)C)O3)O[C@H]2C=C1C [Compound 3]
- osteoblast differentiation ability (C3H/10T1/2 cells [3]): increased
- concentration of maximum osteoblast differentiation activity (C3H/10T1/2 cells [3]): 2.5 µg/mL
- concentration at which cytotoxicity was observed (C3H/10T1/2 cells [3]): > 2.5 µg/mL
- Solubility [1]: Easily Dissolved in Organic Solvent of Acetone, Methanol, DMSO, etc.
- adipocyte differentiation ability (C3H/10T1/2 cells [2]): remarkably decreased

SMILES: CC(=O)O[C@H]1C[C@H]2C(CO)=C[C@@]3(C=C(C)C[C@H](/C=C(\C)CCC=C(C)C)O3)O[C@H]2C=C1C [Compound 4]
- protein expression of Runx2 and TAZ (Runx2 and TAZ): increased
- osteoblast differentiation ability (C3H/10T1/2 cells [3]): increased
- concentration of maximum osteoblast differentiation activity (C3H/10T1/2 cells [3]): 5 µg/mL
- concentration at which cytotoxicity was observed (C3H/10T1/2 cells [3]): > 5 µg/mL
- Solubility [1]: Easily Dissolved in Organic Solvent of Acetone, Methanol, DMSO, etc.
- transcription degree of differentiation mark factors (Runx2, Osteocalcin, Msx2, etc.) (Runx2, Osteocalcin, Msx2): remarkably increased
- adipocyte differentiation ability (C3H/10T1/2 cells [2]): remarkably decreased

SMILES: CCCC(=O)OCC1=C[C@@]2(C=C(C)C[C@H](/C=C(\C)CCC=C(C)C)O2)O[C@H]2C=C(C)C(=O)C[C@@H]12 [Compound 5]
- osteoblast differentiation ability (C3H/10T1/2 cells [3]): promoted differentiation of the osteoblast in a similar degree as that of the compound 1

SMILES: CC1=C[C@@]2(C=C(CO)[C@@H]3CC(=O)C(C)=C[C@@H]3O2)O[C@@H](/C=C(\C)C/C=C/C(C)(C)O)C1 [Compound 9]
- Solubility [1]: Easily Dissolved in Organic Solvent of Acetone, Methanol, DMSO, etc.

SMILES: C=C(C)C(O)CC/C(C)=C/[C@H]1CC(C)=C[C@@]2(C=C(CO)[C@@H]3CC(=O)C(C)=C[C@@H]3O2)O1 (some centres unmarked) [Compound 10]
- Solubility [1]: Easily Dissolved in Organic Solvent of Acetone, Methanol, DMSO, etc.
